Common to all, as to experiment: NCI-60 cell line screen, 48 h
In test [1] the test system is OVCAR-5 ovarian.
Test [2] concerns EKVX NSCLC.
Test [3] has as its system HCT-116 colon.
Test [4] deals with RXF 393 renal.
Test [5] concerns MCF7 breast.
Test [6] has as its system SNB-19 CNS.
Test [7] concerns SF-539 CNS.
Test [8] has as its system MDA-MB-231 breast.
Test [9] has as its system OVCAR-3 ovarian.
Test [10] concerns MDA-N.
The subject of test [11] is ACHN renal.
The subject of test [12] is MDA-MB-435.
The test system of test [13] is NCI-H460 lung.
The test system of test [14] is OVCAR-4 ovarian.
Test [15] relates to SK-OV-3 ovarian.
The test system of test [16] is HOP-62 NSCLC.
Test [17] deals with UO-31 renal.
Test [18] relates to RPMI-8226 leukemia.
For test [19], the system named is CCRF-CEM leukemia.
For test [20], the system named is SR leukemia.

The structures appear in SMILES notation.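 Values below derive from 48-hour exposures of cells grown in 96-well plates, with endpoints linearly interpolated between the two concentrations bracketing the appropriate inhibition level. The concentration for full growth arrest is given as TGI.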 Some results are limits rather than exact numbers.

As to `O=C1C(C(O)(C(F)(F)Cl)C(F)(F)Cl)CCCC1C(O)(C(F)(F)Cl)C(F)(F)Cl` (stereo not drawn), the TGI in test [1], in test [2], in test [3], in test [4], in [5] and in test [6] was greater than 10 µM in each case. In addition, the TGI in [7], in test [8], in [9], in [10], in test [11] and in test [12] was greater than 10 µM throughout. The TGI in [13], in test [14], in [15] and in [16] was greater than 10 µM each time.
In the case of `CCN(CC)Cc1cc(Nc2c3ccccc3nc3c2[nH]c2ccccc23)cc(CN(CC)CC)c1O`, the TGI in test [1] turned out to be 9.21 µM; in [2], 3.12 µM; in [3] it was 3.33 µM; in test [4], 1.25 µM; in [5] it was 9.07 µM; in test [6] it was 5.75 µM. The TGI amounted to 2.29 µM in test [7]; 2.62 µM in [8]; 2.07 µM in test [10]; 3.48 µM in test [11]; 2.04 µM in test [12]; 2.01 µM in [13]. The TGI in [17] came out at 4.62 µM; in test [14] it was 1.81 µM; in [15], 17 µM; in [16], 2.26 µM.
As for `O=C(c1cc2ccccc2[nH]1)N1C2CCC1CN(CCOC(c1ccc(F)cc1)c1ccc(F)cc1)CC2` (stereo not drawn), the TGI in test [1] is greater than 100 µM; in [2], greater than 100 µM; in test [3] it was greater than 100 µM; in [4], 8.41 µM; in test [5] it was greater than 100 µM; in test [6], greater than 100 µM. Also, the TGI in test [7], in test [8], in test [9], in test [10], in test [18] and in [19] was greater than 100 µM in each case. In addition, the TGI in test [11], in test [12], in test [13], in [14], in test [15] and in test [16] was greater than 100 µM each time.
On to `Cc1ccc(S(=O)(=O)CN2C(=O)C(c3ccccc3)(c3ccccc3)C23OC(c2ccc(Cl)cc2)=CC3=O)cc1` (stereo not drawn), for which the TGI in test [1], in test [2], in test [3], in test [4], in [5] and in test [6] was greater than 10 µM throughout. In addition, the TGI in [7], in [8], in [9], in [10], in test [19] and in test [11] was greater than 10 µM each time. Moreover, the TGI in test [12], in [13], in test [17], in test [14], in test [15] and in [16] was greater than 10 µM in each case.
Regarding `CC1(C)CC(=O)C(/C=N/C(N)=S)=C(O)C1`, the TGI in [1], in test [2], in test [3], in [4], in [5] and in test [6] was greater than 100 µM in each case. Moreover, the TGI in [7], in test [8], in test [9], in [10], in test [19] and in test [11] was greater than 100 µM in each case. The TGI in test [12], in test [13], in test [17], in test [14], in test [15] and in test [16] was greater than 100 µM throughout.
For the compound `C=CCc1[nH]c2c(OCc3ccccc3)cc(N(CC=C)C(C)=O)cc2c1C`, the TGI in test [1] came out at 27.2 µM; in test [2], 21 µM; in test [3] it was 24.8 µM; in test [4], 26.7 µM; in test [5] it was 24.9 µM; in test [6] it was 25.3 µM. Further, the TGI was determined as 32 µM in test [7]; 23.2 µM in [8]; 29.6 µM in test [9]; 27.9 µM in test [10]; 67.6 µM in test [18]; 75.9 µM in [19]. Moreover, the TGI came to 25.3 µM in test [11]; 33.5 µM in test [12]; 27.9 µM in test [13]; 21.3 µM in test [17]; 23.6 µM in test [14]; 31.9 µM in test [15]. This compound registered a TGI in test [16] of 36.7 µM.
On to `COc1cc2nc(Nc3cccc(Br)c3)nc(Nc3cccc(Br)c3)c2cc1OC`, for which the TGI in test [1] turned out to be 70.9 µM; in test [2], 39.8 µM; in test [3], 31.4 µM; in test [4], 33.7 µM; in [5], 32.4 µM; in [6], 32.3 µM. In addition, the TGI in test [8] is 39.7 µM; in test [9], 31.2 µM; in test [10] it was 32.8 µM; in [19] it was 46.5 µM; in test [11] it was 29.4 µM; in test [12], 36 µM. In addition, the TGI in test [13] was 51.8 µM; in [17] it was 29.4 µM; in [14], 30.9 µM; in [15], 34.4 µM; in test [16] it was 33.6 µM.
As for `c1cnn(C23C4C5C6C4C2C6C53)c1` (stereo not drawn), the TGI in test [1], in test [2], in test [3], in test [5], in [6] and in test [7] was greater than 100 µM in each case. Besides, the TGI in test [8], in test [10], in [20], in [18], in test [19] and in test [11] was greater than 100 µM each time. The TGI in [12], in [13], in [15] and in test [16] was greater than 100 µM in each case.
